Results as given in ChEMBL document CHEMBL1135857, “Exploration of peptidyl hydrazones as water-soluble calpain inhibitors” (Bioorg Med Chem Lett, 2002).
Values after ≈ are worked out from the molar mass of the structure shown.

What was measured:
[1] = biological target: T1, Calpain-1 catalytic subunit (Sus scrofa, UniProt P35750); assay: Tested for inhibitory activity against porcine erythrocyte Mu-calpain
T1 sequence (P35750 whole entry): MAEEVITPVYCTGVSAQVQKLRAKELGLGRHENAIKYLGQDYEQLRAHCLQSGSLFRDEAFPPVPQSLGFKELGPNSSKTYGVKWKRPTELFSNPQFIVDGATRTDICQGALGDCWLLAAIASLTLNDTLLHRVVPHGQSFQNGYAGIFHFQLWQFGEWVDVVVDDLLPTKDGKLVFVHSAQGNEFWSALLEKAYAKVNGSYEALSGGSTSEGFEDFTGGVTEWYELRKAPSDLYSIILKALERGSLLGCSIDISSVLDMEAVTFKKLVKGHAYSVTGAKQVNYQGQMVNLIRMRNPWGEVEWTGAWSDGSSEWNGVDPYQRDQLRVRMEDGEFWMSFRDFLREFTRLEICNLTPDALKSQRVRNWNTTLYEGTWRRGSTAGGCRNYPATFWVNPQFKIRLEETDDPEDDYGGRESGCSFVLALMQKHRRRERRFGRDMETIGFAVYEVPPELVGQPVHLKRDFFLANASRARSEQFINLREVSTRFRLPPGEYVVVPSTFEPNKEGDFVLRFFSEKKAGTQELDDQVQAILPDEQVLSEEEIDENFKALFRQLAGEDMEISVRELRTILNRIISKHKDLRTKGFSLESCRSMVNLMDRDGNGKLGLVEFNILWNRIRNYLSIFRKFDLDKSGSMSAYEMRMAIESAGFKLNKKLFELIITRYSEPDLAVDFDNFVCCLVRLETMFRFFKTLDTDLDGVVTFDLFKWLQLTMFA

[2] = Water solubility was determined at pH 4; type: ADME
[3] = Water solubility was determined at pH 7; type: ADME
[4] = Water solubility was determined at pH 5; type: ADME
[5] = Water solubility was determined at pH 6; type: ADME

Compound	IC50 [1]	solubility [2]	solubility [3]	solubility [4]	solubility [5]
CC(C)[C@H](NS(=O)(=O)c1ccc(F)cc1)C(=O)NC/C=N/NC(=O)CN(C)C	> 10000 nM	> 5000 µg/mL	> 5000 µg/mL	> 5000 µg/mL	> 5000 µg/mL
CC(C)C[C@@H](/C=N/N1CCOCC1)NC(=O)[C@@H](NS(=O)(=O)c1ccc(F)cc1)C(C)C	790 nM	67.3 µg/mL (≈ 147 µM)	58.2 µg/mL (≈ 127 µM)	63.3 µg/mL (≈ 139 µM)	60.8 µg/mL (≈ 133 µM)
CC(C)[C@H](NS(=O)(=O)c1ccc(F)cc1)C(=O)NC/C=N/N1CCOCC1	6200 nM	1260 µg/mL (≈ 3150 µM)	667 µg/mL (≈ 1670 µM)	840 µg/mL (≈ 2100 µM)	692 µg/mL (≈ 1730 µM)

Now those with a lower IC50 [1], led by results:

IC50 [1]	solubility [2]	solubility [3]	solubility [4]	solubility [5]	Compound
680 nM	433 µg/mL (≈ 1010 µM)				CC(C)C[C@@H](/C=N/NC(N)=O)NC(=O)[C@@H](NS(=O)(=O)c1ccc(F)cc1)C(C)C
35 nM	102 µg/mL (≈ 274 µM)	105 µg/mL (≈ 282 µM)		100 µg/mL (≈ 268 µM)	CC(C)C[C@@H](C=O)NC(=O)[C@@H](NS(=O)(=O)c1ccc(F)cc1)C(C)C
190 nM	228 µg/mL (≈ 530 µM)	293 µg/mL (≈ 681 µM)	234 µg/mL (≈ 543 µM)	226 µg/mL (≈ 525 µM)	CC(C)C[C@@H](/C=N/NCCO)NC(=O)[C@@H](NS(=O)(=O)c1ccc(F)cc1)C(C)C
